According to patent US10004754B2, “ANP fragment adjuvant therapy to standard of care (SOC) diuretic treatment” (MADELEINE PHARMACEUTICALS PTY LTD, priority 2014, dated 2018):
Like-named read-outs stand apart in the source and are kept apart here. Where no end group is shown, it is not given here.

Experiments:
stable CHF patients [1] = type: in vivo, human; details: for Diastolic Blood Pressure: baseline 65 ± 10; for Diastolic Blood Pressure / Systolic Blood Pressure: with SOC; for Systolic Blood Pressure: baseline 119 ± 15
Protocol: VSDL in the form of a white lyophilised powder (synthesised using standard protein synthesis method by Auspep Pty Ltd, Parkville, VIC, Australia), stored in an ultra-low freezer (−80° C.), was reconstituted in a vial with 10 ml of 0.9% saline (preservative free) and aseptically transferred into a 20 ml syringe (that connects to a cannula) before use.
A first study was conducted with a cohort of eight (8) test adult patients, both male and female, with a history of stable, chronic congestive heart failure and moderate renal impairment that had been selected on the basis of the following Inclusion and Exclusion criteria:
All patients underwent existing standard of care (SOC) treatment for the condition for which they presented. These treatments were diuretic therapy (ie administration with furosemide or spironolactone) and an antihypertensive drug(s) (eg an Angiotensin Converting Enzyme (ACE) inhibitor, beta blocker agent and calcium channel blocker agent). […]

stable CHF patients [2] = assay: Blood pressure during and after continuous sc VSDL infusion, Example 2; type: in vivo, human; details: for average drop in blood pressure, diastolic / average drop in blood pressure, systolic: during the 24 hour time period; for mean drop in blood pressure, diastolic / mean drop in blood pressure, systolic: throughout the 12 hour infusion period
Protocol: (§1) A second study was conducted with a population of eighteen (18) test adult CHF patients, both male and female, in order to further evaluate the improvement in renal and cardiac function in stable CHF patients given VSDL (by sc administration) in addition to standard of care (SOC) treatment.
(§2) Participants were selected on the basis of the Inclusion and Exclusion criteria given in Example 1. […] In addition, selected patients were required to have a plasma brain natriuretic peptide (BNP) concentration of ≥100 pg/mL and a GFR ≥25 mL/min and <70 mL/min as calculated by the Cockroft Gault calculation (ie moderate renal impairment). On the other hand, the presence of acute MI (ie as indicated by ST elevation and/or elevation of Troponin-T) or evidence of MI or other high risk acute coronary syndrome within the past 6 weeks, hypotension (ie systolic blood pressure (SBP) <90 mmHg), persistent and/or uncontrolled hypertension (SBP>180 mmHg), cardiogenic shock or any other clinical condition that would contraindicate administration of an agent with potent vasodilatory effects, excluded patients from participating in the study. Participants in this study also had standard exclusion criteria that accompany pulmonary artery (SG) catheterisation.
(§3) The study was an open-label, sequential group, continuous sc infusion study conducted at a single centre. Two steady-state concentration levels (Css) of VSDL were targeted, approximately 10 ng/mL (n=2 lead-in, and n=10, cohort 1) and 20 ng/mL (n=6, cohort 2). The two lead-in patients were treated with similar dose regimens to confirm that the measured plasma concentrations were in agreement with the targeted Css. Two patients from cohort 1 and all 6 patients from cohort 2 underwent pulmonary artery Swan-Ganz (SG) catheterisation to enable haemodynamic monitoring.
(§4) VSDL prepared as described in Example 1, was administered via sc 6 or 12 hour infusion into the lower abdomen at a maximum volume rate of 350 μL/hr (ie approximately 6 μL/min). The rate of infusion of VSDL for the targeted Css level of 10 ng/mL was either 900 μg/hr (0.3 mL/hr) for 12 hrs or a bimodal infusion of 900 μg/hr for 5 hrs followed by 550 μg/hr (0.18 mL/hr) for 7 hrs. The rate of infusion of VSDL for the targeted Css level of 20 ng/mL was bimodal; 1800 μg/hr (0.20 mL/hr) for 5 hrs followed by 1100 μg/hr (0.12 mL/hr) for 7 hrs (see WO 2014/138796). For the lead-in patients, the infusions were performed at 900 μg/hr for 6 hrs.
(§5) R Studio (version 4) and GraphPad Prism (GraphPad Software, version 6) were used for all statistical analyses. Statistically significant changes from base line for all parameters were tested using with linear mixed effects model or one-way repeated measures ANOVA with Bonferroni correction. A p value of 0.05 was set for statistically significant differences. All data are reported as mean±s.d or mean (95% CI).

stable CHF patients [3] = assay: Cardiovascular haemodynamics (Swan-Ganz catheterisation) with sc VSDL infusion, Example 2; type: in vivo, human; details: for Cardiac Output, Mean / Cardiac Output, Median: baseline 4.7; for systemic vascular resistance: baseline=3076+929
Protocol: as §1, §2, §3, §4, §5

stable CHF patients [4] = assay: Urine output and fractional excretion of sodium with sc VSDL infusion, Example 2; type: in vivo, human
Protocol: as §1, §2, §3, §4, §5

[5] = system: patients showing either acute exacerbations of chronic CHF or ADCHF; details: cited from earlier work
[6] = lead-in patients, 900 μg/hr sc for 6 hours, up to 24 hours post infusion
[7] = patients with baseline blood pressures ≤105/60 mmHg, during the infusion

Sequence: EVVPPQVLSEPNEEAGAALSPLPEVPPWTGEVSPAQR [VSDL]
- Diastolic Blood Pressure (stable CHF patients [1]; 10 ng/kg column): 64 ± 7 mmHg
- Systolic Blood Pressure (stable CHF patients [1]; 10 ng/kg column): 122 ± 10 mmHg
- Diastolic Blood Pressure (stable CHF patients [1]; 20 ng/kg column): 65 ± 6 mmHg
- Systolic Blood Pressure (stable CHF patients [1]; 20 ng/kg column): 115 ± 19 mmHg
- symptomatic hypotension (stable CHF patients [1]; human, in vivo, sc): none of these resulted in symptomatic hypotension
- change in systolic and diastolic blood pressures (stable CHF patients [1]; stable CHF patients, sc bolus VSDL with SOC, p < 0.05): significant drop
- Diastolic Blood Pressure (stable CHF patients [2]; 10 ng/ml cohort, 0.5-6 hs, baseline 61 ± 8): 64 ± 8 mmHg
- Systolic Blood Pressure (stable CHF patients [2]; 10 ng/ml cohort, 0.5-6 hs, baseline 116 ± 10): 121 ± 11 mmHg
- Diastolic Blood Pressure (stable CHF patients [2]; 10 ng/ml cohort, >6-12 hs, baseline 61 ± 8): 65 ± 7 mmHg
- Systolic Blood Pressure (stable CHF patients [2]; 10 ng/ml cohort, >6-12 hs, baseline 116 ± 10): 125 ± 10 mmHg
- Diastolic Blood Pressure (stable CHF patients [2]; 10 ng/ml cohort, >12-24 hs, baseline 61 ± 8): 62 ± 7 mmHg
- Systolic Blood Pressure (stable CHF patients [2]; 10 ng/ml cohort, >12-24 hs, baseline 116 ± 10): 118 ± 10 mmHg
- average drop in blood pressure, diastolic (stable CHF patients [2]; 10 ng/ml cohort): −5 mmHg
- average drop in blood pressure, systolic (stable CHF patients [2]; 10 ng/ml cohort): −8 mmHg
- mean drop in blood pressure, diastolic (stable CHF patients [2]; 10 ng/ml cohort): −6 mmHg
- mean drop in blood pressure, systolic (stable CHF patients [2]; 10 ng/ml cohort): −8 mmHg
- Diastolic Blood Pressure (stable CHF patients [2]; 20 ng/ml cohort, 0.5-6 hs, baseline 71 ± 12): 66 ± 6 mmHg
- Systolic Blood Pressure (stable CHF patients [2]; 20 ng/ml cohort, 0.5-6 hs, baseline 124 ± 21): 116 ± 17 mmHg
- Diastolic Blood Pressure (stable CHF patients [2]; 20 ng/ml cohort, >6-12 hs, baseline 71 ± 12): 67 ± 6 mmHg
- Systolic Blood Pressure (stable CHF patients [2]; 20 ng/ml cohort, >6-12 hs, baseline 124 ± 21): 118 ± 20 mmHg
- Diastolic Blood Pressure (stable CHF patients [2]; 20 ng/ml cohort, >12-24 hs, baseline 71 ± 12): 64 ± 6 mmHg
- Systolic Blood Pressure (stable CHF patients [2]; 20 ng/ml cohort, >12-24 hs, baseline 124 ± 21): 116 ± 21 mmHg
- average drop in blood pressure, diastolic (stable CHF patients [2]; 20 ng/ml cohort): −8 mmHg
- average drop in blood pressure, systolic (stable CHF patients [2]; 20 ng/ml cohort): −13 mmHg
- mean drop in blood pressure, diastolic (stable CHF patients [2]; 20 ng/ml cohort): −7 mmHg
- mean drop in blood pressure, systolic (stable CHF patients [2]; 20 ng/ml cohort): −14 mmHg
- drops in mean blood pressures from baseline, based on post infusion time (stable CHF patients [2]; all VSDL-treated patients, p=0.4): no significant drops
- systolic and diastolic blood pressures, regression on concentration of VSDL (stable CHF patients [2]; at higher VSDL concentrations, p=0.005, FIGS. 5A and B): significant decrease
- change in blood pressure (stable CHF patients [2]; lead-in patients, 900 μg/hr sc for 6 hours): no significant change
- mean diastolic blood pressure (stable CHF patients [2]; [6]): 66±3 mmHg
- mean systolic blood pressure (stable CHF patients [2]; [6]): 114±6 mmHg
- Diastolic Blood Pressure (stable CHF patients [2]; patients with BP ≤ 105 mmHg, 0.5-6 hs, baseline 57 ± 6): 61 ± 7 mmHg
- Systolic Blood Pressure (stable CHF patients [2]; patients with BP ≤ 105 mmHg, 0.5-6 hs, baseline 97 ± 8): 106 ± 17 mmHg
- Diastolic Blood Pressure (stable CHF patients [2]; patients with BP ≤ 105 mmHg, >6-12 hs, baseline 57 ± 6): 64 ± 8 mmHg
- Systolic Blood Pressure (stable CHF patients [2]; patients with BP ≤ 105 mmHg, >6-12 hs, baseline 97 ± 8): 113 ± 25 mmHg
- Diastolic Blood Pressure (stable CHF patients [2]; patients with BP ≤ 105 mmHg, >12-24 hs, baseline 57 ± 6): 62 ± 6 mmHg
- Systolic Blood Pressure (stable CHF patients [2]; patients with BP ≤ 105 mmHg, >12-24 hs, baseline 97 ± 8): 109 ± 20 mmHg
- drop in blood pressures (stable CHF patients [2]; patients with baseline blood pressures ≤105/60 mmHg): no significant drop
- average blood pressure drop, diastolic (stable CHF patients [2]; [7]): −3 mmHg
- average blood pressure drop, systolic (stable CHF patients [2]; [7]): −4 mmHg
- Cardiac Output, Mean (stable CHF patients [3]; >0.5-6 hrs): 4.6 L/min
- Cardiac Output, Median (stable CHF patients [3]; >0.5-6 hrs): 4.2 L/min
- Cardiac Output, Mean (stable CHF patients [3]; >6-12 hrs): 4.9 L/min
- Cardiac Output, Median (stable CHF patients [3]; >6-12 hrs): 4.3 L/min
- Cardiac Output, Mean (stable CHF patients [3]; >12-24 hrs): 5.0 L/min
- Cardiac Output, Median (stable CHF patients [3]; >12-24 hrs): 4.4 L/min
- pulmonary capillary wedge pressure (stable CHF patients [3]; adjuvant VSDL treatment, limited patient numbers to date): either decreased or unchanged
- pulmonary vascular resistance (stable CHF patients [3]; infusion of VSDL): no changes
- increase in cardiac output on average above baseline (regression of cardiac output on time) (stable CHF patients [3]; t=3.16, p≤0.05, FIG. 1): 0.000472 L/min
- systemic vascular resistance (stable CHF patients [3]; ≥0.5-6 hs): 2658+676 dyn·s/cm^5
- systemic vascular resistance (stable CHF patients [3]; ≥6-12 hs): 2529+509 dyn·s/cm^5
- systemic vascular resistance (stable CHF patients [3]; ≥12-24 hs): 2485+645 dyn·s/cm^5
- mean urine output (stable CHF patients [4]; 10 ng/ml cohort): 2898 ± 334 mL
- FENa (fractional excretion of sodium) (stable CHF patients [4]; 10 ng/ml cohort, during infusion, baseline 2.2±0.3%, not statistically significant): 3.3±0.8%
- FENa (fractional excretion of sodium) (stable CHF patients [4]; 10 ng/ml cohort, post infusion, baseline 2.2±0.3%): 2.3±0.3%
- mean urine output (stable CHF patients [4]; 20 ng/ml cohort): 3028 ± 301 mL
- FENa (fractional excretion of sodium) (stable CHF patients [4]; 20 ng/ml cohort, during infusion, baseline 1.6±0.3%): 2.4±0.8%
- FENa (fractional excretion of sodium) (stable CHF patients [4]; 20 ng/ml cohort, post infusion, baseline 1.6±0.3%): 1.6±0.4%
- fluid output (urine volumes from baseline) (stable CHF patients [4]; patients treated with VSDL plus SOC): increased
- patients with urine volumes above 3 liters/day (stable CHF patients [4]; pooled 10 and 20 ng/ml patients, FIG. 2): more than 50%
- side-effects ([5]; in vivo, iv): without side-effects
- outcomes (eg increased cardiac index, drops in pulmonary capillary wedge pressure and blood pressure) ([5]; iv infusion, even with very low doses, WO 2012/019237): improved outcomes
